Assay results from patent US8969554B2, “6-acyl-1,2,4-triazine-3,5-dione derivative and herbicides” (Kumiai Chemical Industry Co., Ltd., priority 2010, dated 2015).

Legend:
Type in all cases: in vivo
[1] = test system: Echinochloa oryzicola; assay: Herbicidal activity by paddy field soil treatment (Test Example 1); design: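 index 0 to 10 in 10% steps of herbicidal effect with 10 meaning complete death and 0 below 10%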; conditions: 1000 g of effective component per hectare, evaluated on day 21 after the treatment, criteria of Table 72
Summary of the method: (§1)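 Seeds were sown in puddled paddy soil in pots flooded to 3 cm water depth; the next day a water-diluted wettable powder was applied to the water surface at 1000 g active ingredient/ha. Plants were grown in a greenhouse and herbicidal effect scored by graded criteria on day 21 after treatment.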

[2] = test system: Monochoria vaginalis; assay: as above; design: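 index 0 to 10 in 10% steps of herbicidal effect with 10 meaning complete death and 0 below 10%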; conditions: 1000 g of effective component per hectare, evaluated on day 21 after the treatment, criteria of Table 72
Summary of the method: as §1

[3] = test system: Scirpus juncoides Rocxb.; assay: as above; design: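 index 0 to 10 in 10% steps of herbicidal effect with 10 meaning complete death and 0 below 10%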; conditions: applied on water surface, 1000 g of effective component per hectare, day 21 after the treatment
Summary of the method: as §1

[4] = test system: A. retroflexus; assay: Herbicidal activity by field soil treatment (Test example 2); design: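 index 0 to 10 in 10% steps of herbicidal effect with 10 meaning complete death and 0 below 10%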; conditions: 1000 g effective component per hectare, day 21 after the treatment
Summary of the method: (§2)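 Seeds were sown in field soil in 80 cm^2 pots and covered with soil. A water-diluted wettable powder was then sprayed onto the soil surface at 1000 liters per hectare, delivering 1000 g active ingredient per hectare. Plants grew in a greenhouse, and herbicidal effect was scored against set criteria 21 days after treatment.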

[5] = test system: Echinochloa crus-galli; assay: as above; design: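 index 0 to 10 in 10% steps of herbicidal effect with 10 meaning complete death and 0 below 10%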; conditions: 1000 g effective component per hectare, day 21 after the treatment
Summary of the method: as §2

[6] = test system: Indian millet; assay: as above; design: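 index 0 to 10 in 10% steps of herbicidal effect with 10 meaning complete death and 0 below 10%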; conditions: 1000 g effective component per hectare, day 21 after the treatment
Summary of the method: as §2

[7] = test system: foxtail; assay: as above; conditions: 1000 g effective component per hectare, day 21 after the treatment;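 further: index 0 to 10 in 10% steps of herbicidal effect with 10 meaning complete death and 0 below 10%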
Summary of the method: as §2

[8] = test system: A. retroflexus; assay: Herbicidal activity by field foliage treatment (Test example 3); design: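 index 0 to 10 in 10% steps of herbicidal effect with 10 meaning complete death and 0 below 10%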; conditions: 1000 g effective component per hectare, day 14 after the treatment
Summary of the method: (§3)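 Plants were grown from seed in field soil in a greenhouse for 2 weeks, then sprayed over the whole foliage with a water-diluted wettable powder at 1000 L/ha spray volume, delivering 1000 g active ingredient per hectare. Herbicidal effect was scored on day 14 after treatment.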

[9] = test system: Indian millet; assay: as above; design: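 index 0 to 10 in 10% steps of herbicidal effect with 10 meaning complete death and 0 below 10%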; conditions: 1000 g effective component per hectare, day 14 after the treatment
Summary of the method: as §3

[10] = test system: Echinochloa crus-galli; assay: as above; design: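 index 0 to 10 in 10% steps of herbicidal effect with 10 meaning complete death and 0 below 10%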; conditions: 1000 g effective component per hectare, day 14 after the treatment
Summary of the method: (§4)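 Potted field-soil plants grown 2 weeks in a greenhouse were sprayed over the whole foliage with diluted wettable powder at 1000 L/ha, delivering 1000 g active ingredient per hectare. Herbicidal effect scored by visual criteria 14 days after treatment.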

[11] = test system: Setaria viridis; assay: as above; conditions: 1000 g effective component per hectare, day 14 after the treatment;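 further: index 0 to 10 in 10% steps of herbicidal effect with 10 meaning complete death and 0 below 10%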
Summary of the method: as §4

C=CCn1c(=O)c(C(=O)C2=C(O)CCCC2=O)nn(C)c1=O [I-11]
Herbicidal effects index number, Echinochloa oryzicola [1]: 10 | Herbicidal effects index number, Monochoria vaginalis [2]: 10 | herbicidal effect index, S. juncoides Rocxb. [3]: 10 | herbicidal effect index, Amaranthus retroflexus [4]: 10 | herbicidal effect index, Echinochloa crus-galli [5]: 10 | herbicidal effect index, Abutilon theophrasti [6]: 9 | herbicidal effect index, Setaria viridis [7]: 7 | herbicidal effect index, Amaranthus retroflexus [8]: 10 | herbicidal effect index, Abutilon theophrasti [9]: 9 | herbicidal effect index, Echinochloa crus-galli [10]: 9 | herbicidal effect index, Setaria viridis [11]: 9

C#CCn1c(=O)c(C(=O)C2=C(O)CCCC2=O)nn(C)c1=O [I-14]
Herbicidal effects index number, Echinochloa oryzicola [1]: 10 | Herbicidal effects index number, Monochoria vaginalis [2]: 10 | herbicidal effect index, S. juncoides Rocxb. [3]: 10 | herbicidal effect index, Amaranthus retroflexus [4]: 10 | herbicidal effect index, Echinochloa crus-galli [5]: 10 | herbicidal effect index, Abutilon theophrasti [6]: 10 | herbicidal effect index, Setaria viridis [7]: 10 | herbicidal effect index, Amaranthus retroflexus [8]: 10 | herbicidal effect index, Abutilon theophrasti [9]: 10 | herbicidal effect index, Echinochloa crus-galli [10]: 9 | herbicidal effect index, Setaria viridis [11]: 10

Cn1nc(C(=O)C2=C(O)CCCC2=O)c(=O)n(C2CC2)c1=O [I-16]
Herbicidal effects index number, Echinochloa oryzicola [1]: 9 | Herbicidal effects index number, Monochoria vaginalis [2]: 9 | herbicidal effect index, S. juncoides Rocxb. [3]: 10 | herbicidal effect index, Amaranthus retroflexus [4]: 10 | herbicidal effect index, Echinochloa crus-galli [5]: 9 | herbicidal effect index, Abutilon theophrasti [6]: 9 | herbicidal effect index, Setaria viridis [7]: 9 | herbicidal effect index, Amaranthus retroflexus [8]: 10 | herbicidal effect index, Abutilon theophrasti [9]: 9 | herbicidal effect index, Echinochloa crus-galli [10]: 9 | herbicidal effect index, Setaria viridis [11]: 9

COCCCn1c(=O)c(C(=O)C2=C(O)CCCC2=O)nn(C)c1=O [I-41]
Herbicidal effects index number, Echinochloa oryzicola [1]: 8 | Herbicidal effects index number, Monochoria vaginalis [2]: 8 | herbicidal effect index, S. juncoides Rocxb. [3]: 10 | herbicidal effect index, Amaranthus retroflexus [4]: 10 | herbicidal effect index, Echinochloa crus-galli [5]: 9 | herbicidal effect index, Abutilon theophrasti [6]: 8 | herbicidal effect index, Setaria viridis [7]: 7 | herbicidal effect index, Amaranthus retroflexus [8]: 10 | herbicidal effect index, Abutilon theophrasti [9]: 10 | herbicidal effect index, Echinochloa crus-galli [10]: 10 | herbicidal effect index, Setaria viridis [11]: 10

Cn1nc(C(=O)C2=C(O)CCCC2=O)c(=O)n(-c2ccccc2)c1=O [I-50, 6-(2-hydroxy-6-oxocyclohexa-1-enecarbonyl)-2-methyl-4-phenyl-1,2,4-triazine-3,5 (2H, 4H)-dione]
Herbicidal effects index number, Echinochloa oryzicola [1]: 10 | Herbicidal effects index number, Monochoria vaginalis [2]: 10 | herbicidal effect index, S. juncoides Rocxb. [3]: 10 | herbicidal effect index, Amaranthus retroflexus [4]: 10 | herbicidal effect index, Echinochloa crus-galli [5]: 10 | herbicidal effect index, Abutilon theophrasti [6]: 10 | herbicidal effect index, Setaria viridis [7]: 10 | herbicidal effect index, Amaranthus retroflexus [8]: 10 | herbicidal effect index, Abutilon theophrasti [9]: 10 | herbicidal effect index, Echinochloa crus-galli [10]: 10 | herbicidal effect index, Setaria viridis [11]: 10

Cn1nc(C(=O)C2=C(O)CCCC2=O)c(=O)n(-c2ccccc2Cl)c1=O [I-51]
Herbicidal effects index number, Echinochloa oryzicola [1]: 10 | Herbicidal effects index number, Monochoria vaginalis [2]: 10 | herbicidal effect index, S. juncoides Rocxb. [3]: 10 | herbicidal effect index, Amaranthus retroflexus [4]: 10 | herbicidal effect index, Echinochloa crus-galli [5]: 10 | herbicidal effect index, Abutilon theophrasti [6]: 10 | herbicidal effect index, Setaria viridis [7]: 10 | herbicidal effect index, Amaranthus retroflexus [8]: 10 | herbicidal effect index, Abutilon theophrasti [9]: 10 | herbicidal effect index, Echinochloa crus-galli [10]: 10 | herbicidal effect index, Setaria viridis [11]: 10

Cn1nc(C(=O)C2=C(O)CCCC2=O)c(=O)n(-c2cccc(Cl)c2)c1=O [I-52]
Herbicidal effects index number, Echinochloa oryzicola [1]: 10 | Herbicidal effects index number, Monochoria vaginalis [2]: 10 | herbicidal effect index, S. juncoides Rocxb. [3]: 10 | herbicidal effect index, Amaranthus retroflexus [4]: 10 | herbicidal effect index, Echinochloa crus-galli [5]: 10 | herbicidal effect index, Abutilon theophrasti [6]: 10 | herbicidal effect index, Setaria viridis [7]: 10 | herbicidal effect index, Amaranthus retroflexus [8]: 10 | herbicidal effect index, Abutilon theophrasti [9]: 10 | herbicidal effect index, Echinochloa crus-galli [10]: 10 | herbicidal effect index, Setaria viridis [11]: 10

Cn1nc(C(=O)C2=C(O)CCCC2=O)c(=O)n(-c2ccccc2F)c1=O [I-54]
Herbicidal effects index number, Echinochloa oryzicola [1]: 10 | Herbicidal effects index number, Monochoria vaginalis [2]: 10 | herbicidal effect index, S. juncoides Rocxb. [3]: 10 | herbicidal effect index, Amaranthus retroflexus [4]: 10 | herbicidal effect index, Echinochloa crus-galli [5]: 10 | herbicidal effect index, Abutilon theophrasti [6]: 10 | herbicidal effect index, Setaria viridis [7]: 10 | herbicidal effect index, Amaranthus retroflexus [8]: 10 | herbicidal effect index, Abutilon theophrasti [9]: 10 | herbicidal effect index, Echinochloa crus-galli [10]: 10 | herbicidal effect index, Setaria viridis [11]: 10

Cn1nc(C(=O)C2=C(O)CCCC2=O)c(=O)n(-c2cccc(F)c2)c1=O [I-55]
Herbicidal effects index number, Echinochloa oryzicola [1]: 10 | Herbicidal effects index number, Monochoria vaginalis [2]: 10 | herbicidal effect index, S. juncoides Rocxb. [3]: 10 | herbicidal effect index, Amaranthus retroflexus [4]: 10 | herbicidal effect index, Echinochloa crus-galli [5]: 10 | herbicidal effect index, Abutilon theophrasti [6]: 10 | herbicidal effect index, Setaria viridis [7]: 10 | herbicidal effect index, Amaranthus retroflexus [8]: 10 | herbicidal effect index, Abutilon theophrasti [9]: 10 | herbicidal effect index, Echinochloa crus-galli [10]: 10 | herbicidal effect index, Setaria viridis [11]: 10

Cn1nc(C(=O)C2=C(O)CCCC2=O)c(=O)n(-c2ccc(F)cc2)c1=O [I-56]
Herbicidal effects index number, Echinochloa oryzicola [1]: 10 | Herbicidal effects index number, Monochoria vaginalis [2]: 10 | herbicidal effect index, S. juncoides Rocxb. [3]: 10 | herbicidal effect index, Amaranthus retroflexus [4]: 9 | herbicidal effect index, Echinochloa crus-galli [5]: 10 | herbicidal effect index, Abutilon theophrasti [6]: 10 | herbicidal effect index, Setaria viridis [7]: 10 | herbicidal effect index, Amaranthus retroflexus [8]: 10 | herbicidal effect index, Abutilon theophrasti [9]: 10 | herbicidal effect index, Echinochloa crus-galli [10]: 10 | herbicidal effect index, Setaria viridis [11]: 10

Cc1ccccc1-n1c(=O)c(C(=O)C2=C(O)CCCC2=O)nn(C)c1=O [I-57]
Herbicidal effects index number, Echinochloa oryzicola [1]: 10 | Herbicidal effects index number, Monochoria vaginalis [2]: 10 | herbicidal effect index, S. juncoides Rocxb. [3]: 10 | herbicidal effect index, Amaranthus retroflexus [4]: 10 | herbicidal effect index, Echinochloa crus-galli [5]: 10 | herbicidal effect index, Abutilon theophrasti [6]: 10 | herbicidal effect index, Setaria viridis [7]: 10 | herbicidal effect index, Amaranthus retroflexus [8]: 10 | herbicidal effect index, Abutilon theophrasti [9]: 10 | herbicidal effect index, Echinochloa crus-galli [10]: 10 | herbicidal effect index, Setaria viridis [11]: 10

Cc1cccc(-n2c(=O)c(C(=O)C3=C(O)CCCC3=O)nn(C)c2=O)c1 [I-58]
Herbicidal effects index number, Echinochloa oryzicola [1]: 10 | Herbicidal effects index number, Monochoria vaginalis [2]: 10 | herbicidal effect index, S. juncoides Rocxb. [3]: 10 | herbicidal effect index, Amaranthus retroflexus [4]: 10 | herbicidal effect index, Echinochloa crus-galli [5]: 10 | herbicidal effect index, Abutilon theophrasti [6]: 10 | herbicidal effect index, Setaria viridis [7]: 8 | herbicidal effect index, Amaranthus retroflexus [8]: 10 | herbicidal effect index, Abutilon theophrasti [9]: 10 | herbicidal effect index, Echinochloa crus-galli [10]: 10 | herbicidal effect index, Setaria viridis [11]: 10

Cn1nc(C(=O)C2=C(O)CCCC2=O)c(=O)n(-c2ccccc2C(F)(F)F)c1=O [I-63]
Herbicidal effects index number, Echinochloa oryzicola [1]: 10 | Herbicidal effects index number, Monochoria vaginalis [2]: 10 | herbicidal effect index, S. juncoides Rocxb. [3]: 10 | herbicidal effect index, Amaranthus retroflexus [4]: 10 | herbicidal effect index, Echinochloa crus-galli [5]: 10 | herbicidal effect index, Abutilon theophrasti [6]: 10 | herbicidal effect index, Setaria viridis [7]: 10 | herbicidal effect index, Amaranthus retroflexus [8]: 10 | herbicidal effect index, Abutilon theophrasti [9]: 10 | herbicidal effect index, Echinochloa crus-galli [10]: 10 | herbicidal effect index, Setaria viridis [11]: 10

Cn1nc(C(=O)C2=C(O)CCCC2=O)c(=O)n(-c2ccccc2[N+](=O)[O-])c1=O [I-66]
Herbicidal effects index number, Echinochloa oryzicola [1]: 10 | Herbicidal effects index number, Monochoria vaginalis [2]: 10 | herbicidal effect index, S. juncoides Rocxb. [3]: 10 | herbicidal effect index, Amaranthus retroflexus [4]: 10 | herbicidal effect index, Echinochloa crus-galli [5]: 10 | herbicidal effect index, Abutilon theophrasti [6]: 10 | herbicidal effect index, Setaria viridis [7]: 10 | herbicidal effect index, Amaranthus retroflexus [8]: 10 | herbicidal effect index, Abutilon theophrasti [9]: 10 | herbicidal effect index, Echinochloa crus-galli [10]: 10 | herbicidal effect index, Setaria viridis [11]: 10

Cn1nc(C(=O)C2=C(O)CCCC2=O)c(=O)n(-c2cccc([N+](=O)[O-])c2)c1=O [I-67]
Herbicidal effects index number, Echinochloa oryzicola [1]: 10 | Herbicidal effects index number, Monochoria vaginalis [2]: 10 | herbicidal effect index, S. juncoides Rocxb. [3]: 10 | herbicidal effect index, Amaranthus retroflexus [4]: 10 | herbicidal effect index, Echinochloa crus-galli [5]: 10 | herbicidal effect index, Abutilon theophrasti [6]: 10 | herbicidal effect index, Setaria viridis [7]: 10 | herbicidal effect index, Amaranthus retroflexus [8]: 10 | herbicidal effect index, Abutilon theophrasti [9]: 10 | herbicidal effect index, Echinochloa crus-galli [10]: 10 | herbicidal effect index, Setaria viridis [11]: 10
